Data taken from patent US10519140B2, “Indolin-2-one derivatives” (Hoffmann-La Roche Inc., priority 2015, dated 2019).

Target: T1, mouse ENT-1 transporter (Mus musculus, UniProt Q9JIM1)
T1 construct: expressed in transfected cells
T1 sequence (Q9JIM1 1-460): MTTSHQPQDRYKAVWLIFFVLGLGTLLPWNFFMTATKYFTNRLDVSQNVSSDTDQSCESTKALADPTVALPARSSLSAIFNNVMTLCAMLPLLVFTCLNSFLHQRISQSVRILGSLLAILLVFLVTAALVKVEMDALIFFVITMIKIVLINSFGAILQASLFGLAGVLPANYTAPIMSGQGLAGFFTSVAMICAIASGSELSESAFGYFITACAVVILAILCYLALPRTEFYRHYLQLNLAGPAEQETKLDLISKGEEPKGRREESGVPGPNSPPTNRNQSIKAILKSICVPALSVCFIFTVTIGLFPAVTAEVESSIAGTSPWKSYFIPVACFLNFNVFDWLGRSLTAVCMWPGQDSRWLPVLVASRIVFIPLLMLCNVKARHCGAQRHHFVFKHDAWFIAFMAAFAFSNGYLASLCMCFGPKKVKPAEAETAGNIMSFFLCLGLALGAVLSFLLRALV
Assay: Adenosine transport activity (ENT1, [3H]-adenosine uptake inhibition)
Format: cell-based
Conditions: stable cells expressing mouse ENT-1; [2,8-3H]-adenosine 6 nM, 20 min
Procedure: To measure adenosine transport activity of ENT-1 mammalian cells, stable cells expressing the mouse ENT-1 transporter were plated on day 1 in 96-well culture plates at the density of 60,000 cells/well, in complete DMEM/F12 medium supplemented with glutamax, 10% FBS and 10 μg/ml puromycin. On day 2, the medium was aspirated and the cells were washed twice with uptake buffer (10 mM Hepes-Tris, pH 7.4 containing 150 mM NaCl, 1 mM CaCl2, 2.5 mM KCl, 2.5 mM MgSO4, 10 mM D-glucose) (UB). For inhibition experiments, cells were then incubated at RT with various concentrations of compounds with 1% DMSO final. Non-specific uptake was defined in the presence of 10 μM S-(4-Nitrobenzyl)-6-thioinosine (NBTI, Sigma Cat #N2255). A solution containing [2,8-^3H]-adenosine 6 nM (40 Ci/mmol, American Radiolabeled chemicals Inc, Cat #ART 0287A) was then immediately added to the wells. The plates were then incubated for 20 min with gentle shaking and the reaction was stopped by aspiration of the mixture and washing (three times) with ice-cold UB. The cells were lysed by the addition of scintillation liquid, shaken 3 hours and the radioactivity in the cells was estimated using a microplates scintillation counter (TopCount NXT, Packard).

Structure (SMILES) | IC50 [nM]
Cc1ncc(-c2ccc3c(c2)N(c2cncc(N)n2)C(=O)C3(C)C)cn1 [Example 2, 1-(6-Aminopyrazin-2-yl)-3,3-dimethyl-6-(2-methylpyrimidin-5-yl)indolin-2-one] | 163
Cc1ncc(-c2ccc3c(c2)N(c2cncc(N4CCCC4)n2)C(=O)C3(C)C)cn1 [Example 4, 3,3-Dimethyl-6-(2-methylpyrimidin-5-yl)-1-(6-(pyrrolidin-1-yl)pyrazin-2-yl)indolin-2-one] | 253
CC(=O)Nc1cncc(N2C(=O)C(C)(C)c3ccc(-c4cnc(C)nc4)cc32)n1 [Example 5, N-(6-(3,3-Dimethyl-6-(2-methylpyrimidin-5-yl)-2-oxoindolin-1-yl)pyrazin-2-yl)acetamide] | 48
Cc1ncc(-c2ccc3c(c2)N(c2cncc(N4CCC(F)(F)CC4)n2)C(=O)C3(C)C)cn1 [Example 6, 1-(6-(4,4-Difluoropiperidin-1-yl)pyrazin-2-yl)-3,3-dimethyl-6-(2-methylpyrimidin-5-yl)indolin-2-one] | 32.4
Cc1ncc(-c2ccc3c(c2)N(c2cncc(NC4CC4)n2)C(=O)C3(C)C)cn1 [Example 7, 1-(6-(Cyclopropylamino)pyrazin-2-yl)-3,3-dimethyl-6-(2-methylpyrimidin-5-yl)indolin-2-one] | 39.6
COCCNc1cncc(N2C(=O)C(C)(C)c3ccc(-c4cnc(C)nc4)cc32)n1 [Example 8, 1-[6-(2-Methoxyethylamino)pyrazin-2-yl]-3,3-dimethyl-6-(2-methylpyrimidin-5-yl)indol-2-one] | 87.6
Cc1ncc(-c2ccc3c(c2)N(c2cncc(N4CCC(O)CC4)n2)C(=O)C3(C)C)cn1 [Example 9, 1-(6-(4-Hydroxypiperidin-1-yl)pyrazin-2-yl)-3,3-dimethyl-6-(2-methylpyrimidin-5-yl)indolin-2-one] | 21.8
Cc1ncc(-c2ccc3c(c2)N(c2cncc(N4CCS(=O)(=O)CC4)n2)C(=O)C3(C)C)cn1 [Example 10, 1-(6-(1,1-Dioxidothiomorpholino)pyrazin-2-yl)-3,3-dimethyl-6-(2-methylpyrimidin-5-yl)indolin-2-one] | 29.6
Cc1ncc(-c2ccc3c(c2)N(c2cncc(N4CCC(C)(O)CC4)n2)C(=O)C3(C)C)cn1 [Example 11, 1-(6-(4-Hydroxy-4-methylpiperidin-1-yl)pyrazin-2-yl)-3,3-dimethyl-6-(2-methylpyrimidin-5-yl)indolin-2-one] | 33.8
COCCN(C)c1cncc(N2C(=O)C(C)(C)c3ccc(-c4cnc(C)nc4)cc32)n1 [Example 12, 1-(6-((2-Methoxyethyl)(methyl)amino)pyrazin-2-yl)-3,3-dimethyl-6-(2-methylpyrimidin-5-yl)indolin-2-one] | 54.5
Cc1ncc(-c2ccc3c(c2)N(c2cncc(N4[C@@H]5COC[C@H]4C5)n2)C(=O)C3(C)C)cn1 [Example 13, 1-(6-((1R,5S)-3-Oxa-6-azabicyclo[3.1.1]heptan-6-yl)pyrazin-2-yl)-3,3-dimethyl-6-(2-methylpyrimidin-5-yl)indolin-2-one] | 137
Cc1ncc(-c2ccc3c(c2)N(c2cncc(N4CCC45COC5)n2)C(=O)C3(C)C)cn1 [Example 14, 1-(6-(6-Oxa-1-azaspiro[3.3]heptan-1-yl)pyrazin-2-yl)-3,3-dimethyl-6-(2-methylpyrimidin-5-yl)indolin-2-one] | 110
Cc1ncc(-c2ccc3c(c2)N(c2cncc(N4C[C@H]5C[C@@H](C4)O5)n2)C(=O)C3(C)C)cn1 [Example 16, 1-(6-((1R,5S)-6-Oxa-3-azabicyclo[3.1.1]heptan-3-yl)pyrazin-2-yl)-3,3-dimethyl-6-(2-methylpyrimidin-5-yl)indolin-2-one] | 88.7

Results, then the molecule that gave them:

IC50 [nM] | Structure (SMILES)
24.8 | Cc1ncc(-c2ccc3c(c2)N(c2cncc(N4C(=O)O[C@H]5CC[C@H]54)n2)C(=O)C3(C)C)cn1 (racemic) [Example 55, rac-(1S,5R)-4-(6-(3,3-Dimethyl-6-(2-methylpyrimidin-5-yl)-2-oxoindolin-1-yl)pyrazin-2-yl)-2-oxa-4-azabicyclo[3.2.0]heptan-3-one]
244 | Cc1ncc(-c2ccc3c(c2)N(c2cncc(NC4COC4)n2)C(=O)C3(C)C)cn1 [Example 17, 3,3-Dimethyl-6-(2-methylpyrimidin-5-yl)-1-(6-(oxetan-3-ylamino)pyrazin-2-yl)indolin-2-one]
110 | COCCNc1nc(N2C(=O)C(C)(C)c3ccc(-c4cnc(C)nc4)cc32)cnc1C [Example 19, 1-(6-((2-Methoxyethyl)amino)-5-methylpyrazin-2-yl)-3,3-dimethyl-6-(2-methylpyrimidin-5-yl)indolin-2-one]
238 | Cc1ncc(-c2ccc3c(c2)N(c2cncc(N4C(=O)OC[C@H]4C(C)C)n2)C(=O)C3(C)C)cn1 [Example 21, (R)-3-(6-(3,3-Dimethyl-6-(2-methylpyrimidin-5-yl)-2-oxoindolin-1-yl)pyrazin-2-yl)-4-isopropyloxazolidin-2-one]
387 | Cc1ncc(-c2ccc3c(c2)N(c2cncc(N4C(=O)OC[C@@H]4C(C)C)n2)C(=O)C3(C)C)cn1 [Example 22, (S)-3-(6-(3,3-Dimethyl-6-(2-methylpyrimidin-5-yl)-2-oxoindolin-1-yl)pyrazin-2-yl)-4-isopropyloxazolidin-2-one]
52.2 | Cc1ncc(-c2ccc3c(c2)N(c2ccnc(N4CCOCC4)n2)C(=O)C3(C)C)cn1 [Example 23, 3,3-Dimethyl-6-(2-methylpyrimidin-5-yl)-1-(2-morpholinopyrimidin-4-yl)indolin-2-one]
321 | Cc1ncc(-c2ccc3c(c2)N(c2nccc(N4CCOCC4)n2)C(=O)C3(C)C)cn1 [Example 24, 3,3-Dimethyl-6-(2-methylpyrimidin-5-yl)-1-(4-morpholinopyrimidin-2-yl)indolin-2-one]
466 | Cc1ncc(-c2ccc3c(c2)N(c2cncc(N)c2)C(=O)C3(C)C)cn1 [Example 25, 1-(5-Aminopyridin-3-yl)-3,3-dimethyl-6-(2-methylpyrimidin-5-yl)indolin-2-one]
17.6 | Cc1ncc(-c2ccc3c(c2)N(c2cncc(N4CCOCC4)c2)C(=O)C3(C)C)cn1 [Example 26, 3,3-Dimethyl-6-(2-methylpyrimidin-5-yl)-1-(5-morpholinopyridin-3-yl)indolin-2-one]
57.5 | Cc1ncc(-c2ccc3c(c2)N(c2cccc(N4CCOCC4)n2)C(=O)C3(C)C)cn1 [Example 27, 3,3-Dimethyl-6-(2-methylpyrimidin-5-yl)-1-(6-morpholinopyridin-2-yl)indolin-2-one]
5 | Cc1ncc(-c2ccc3c(c2)N(c2cccc(N4CCOC4=O)n2)C(=O)C3(C)C)cn1 [Example 28, 3-(6-(3,3-Dimethyl-6-(2-methylpyrimidin-5-yl)-2-oxoindolin-1-yl)pyridin-2-yl)oxazolidin-2-one]
126 | Cc1ncc(-c2ccc3c(c2)N(c2ccc(C)c(N)n2)C(=O)C3(C)C)cn1 [Example 29, 1-(6-Amino-5-methylpyridin-2-yl)-3,3-dimethyl-6-(2-methylpyrimidin-5-yl)indolin-2-one]
346 | CC(=O)Nc1nc(N2C(=O)C(C)(C)c3ccc(-c4cnc(C)nc4)cc32)ccc1C [Example 30, N-(6-(3,3-Dimethyl-6-(2-methylpyrimidin-5-yl)-2-oxoindolin-1-yl)-3-methylpyridin-2-yl)acetamide]
